Test results published in the supplement of paper PMC10307832.

Experiments:
Experiment in all cases: relative viability (nuclei count vs DMSO), 5 days (fraction); higher = more cells survive
R406 + Trametinib = compound: COc1cc(Nc2ncc(F)c(Nc3ccc4c(n3)NC(=O)C(C)(C)O4)n2)cc(OC)c1OC [R406] + CC(=O)Nc1cccc(-n2c(=O)n(C3CC3)c(=O)c3c(Nc4ccc(I)cc4F)n(C)c(=O)c(C)c32)c1 [Trametinib] (partner 0.02 µM)
Method in brief: (§1)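 Relative viability equals treated-well nuclei counts divided by vehicle-well nuclei counts. Counts came from 4× images of lung cancer cell lines grown in 1536-well plates for 5 days after pin-tool dosing on the day after seeding. Dosing used one drug alone or a fixed anchor-drug dose plus five library-drug doses (not always all listed) in √10 steps, and values are medians of duplicate plates.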

R406 + Phenformin = compound: COc1cc(Nc2ncc(F)c(Nc3ccc4c(n3)NC(=O)C(C)(C)O4)n2)cc(OC)c1OC [R406] + N=C(N)NC(=N)NCCc1ccccc1 [Phenformin] (partner 250 µM)
Method in brief: as §1

R406 + Decitabine = compound: COc1cc(Nc2ncc(F)c(Nc3ccc4c(n3)NC(=O)C(C)(C)O4)n2)cc(OC)c1OC [R406] + Nc1ncn([C@H]2C[C@H](O)[C@@H](CO)O2)c(=O)n1 [Decitabine] (partner 2 µM)
Method in brief: as §1

Daporinad + Navitoclax = compound: O=C(/C=C/c1cccnc1)NCCCCC1CCN(C(=O)c2ccccc2)CC1 [Daporinad] + CC1(C)CCC(c2ccc(Cl)cc2)=C(CN2CCN(c3ccc(C(=O)NS(=O)(=O)c4ccc(N[C@H](CCN5CCOCC5)CSc5ccccc5)c(S(=O)(=O)C(F)(F)F)c4)cc3)CC2)C1 [Navitoclax] (partner 0.5 µM)
Method in brief: as §1

Cell Line | relative viability (R406 + Trametinib; first compound 0.08 µM) | relative viability (R406 + Trametinib; first compound 0.253 µM) | relative viability (R406 + Trametinib; first compound 0.8 µM) | relative viability (R406 + Trametinib; first compound 2.53 µM) | relative viability (R406 + Trametinib; first compound 8 µM) | relative viability (R406 + Phenformin; first compound 0.08 µM) | relative viability (R406 + Phenformin; first compound 0.253 µM) | relative viability (R406 + Phenformin; first compound 0.8 µM) | relative viability (R406 + Phenformin; first compound 2.53 µM) | relative viability (R406 + Phenformin; first compound 8 µM) | relative viability (R406 + Decitabine; first compound 0.08 µM) | relative viability (R406 + Decitabine; first compound 0.253 µM) | relative viability (R406 + Decitabine; first compound 0.8 µM) | relative viability (R406 + Decitabine; first compound 2.53 µM) | relative viability (R406 + Decitabine; first compound 8 µM) | relative viability (Daporinad + Navitoclax; first compound 0.0005 µM) | relative viability (Daporinad + Navitoclax; first compound 0.001581 µM) | relative viability (Daporinad + Navitoclax; first compound 0.005 µM) | relative viability (Daporinad + Navitoclax; first compound 0.01581 µM)
NCI-H3122 | 0.234 | 0.218 | 0.206 | 0.241 | 0.234 | 0.396 | 0.39 | 0.396 | 0.365 | 0.369 | 0.368 | 0.398 | 0.328 | 0.508 | 0.482 | 1.01 | 1.02 | 1.02 | 0.987
HCC-827 | 0.564 | 0.578 | 0.517 | 0.399 | 0.383 | 0.436 | 0.401 | 0.439 | 0.265 | 0.215 | 0.323 | 0.412 | 0.401 | 0.219 | 0.268 | 1.12 | 1.03 | 1.05 | 1.08
SW 1573 | 0.548 | 0.614 | 0.628 | 0.443 | 0.193 | 0.371 | 0.43 | 0.469 | 0.263 | 0.151 | 0.398 | 0.579 | 0.604 | 0.186 | 0.172 | 0.897 | 0.991 | 0.755 | 0.457
NCI-H1975 | 0.315 | 0.307 | 0.287 | 0.112 | 0.201 | 0.386 | 0.463 | 0.421 | 0.224 | 0.127 | 0.368 | 0.401 | 0.386 | 0.31 | 0.19 | 1.28 | 1.18 | 1.06 | 1.06
NCI-H1651 | 0.75 | 0.821 | 0.843 | 0.852 | 0.831 | 0.455 | 0.377 | 0.465 | 0.252 | 0.134 | 0.498 | 0.75 | 0.654 | 0.531 | 0.6 | 1.14 | 1.16 | 0.813 | 0.758
NCI-H460 | 0.0847 | 0.4 | 0.258 | 0.0114 | 0.0382 | 0.552 | 0.682 | 0.609 | 0.105 | 0.102 | 0.426 | 0.596 | 0.758 | 0.0438 | 0.354 | 1.09 | 1.32 | 0.978 | 0.855
LCLC-97TM1 | 0.218 | 0.23 | 0.226 | 0.174 | 0.194 | 0.351 | 0.407 | 0.379 | 0.251 | 0.351 | 0.259 | 0.27 | 0.247 | 0.19 | 0.274 | 0.365 | 0.506 | 0.37 | 0.571
NCI-H838 | 0.526 | 0.598 | 0.684 | 0.256 | 0.115 | 0.569 | 0.634 | 0.727 | 0.188 | 0.132 | 0.496 | 0.528 | 0.485 | 0.363 | 0.214 | 1.15 | 1.23 | 0.928 | 0.624
NCI-H1355 | 0.456 | 0.45 | 0.406 | 0.384 | 0.327 | 0.474 | 0.472 | 0.472 | 0.197 | 0.28 | 0.335 | 0.348 | 0.377 | 0.345 | 0.367 | 0.911 | 0.98 | 1.05 | 0.951
HOP-62 | 0.379 | 0.388 | 0.427 | 0.37 | 0.339 | 0.661 | 0.783 | 0.631 | 0.71 | 0.658 | 0.26 | 0.229 | 0.22 | 0.221 | 0.438 | 1.06 | 0.975 | 0.943 | 0.404
NCI-H2085 | 0.591 | 0.634 | 0.545 | 0.498 | 0.226 | 0.763 | 0.811 | 0.769 | 0.316 | 0.495 | 0.592 | 0.58 | 0.492 | 0.544 | 0.451 | 1.17 | 1.25 | 1.23 | 1.03
